Source: ChEMBL document CHEMBL1833846 (Bioorg Med Chem Lett, 2011)

What was measured:
Histone deacetylase = test: Inhibition of human HDAC in HeLa cells after 30 mins by Fluor de Lys fluorescence assay; assay type: cell-based
Histone deacetylase 1 [1] = biological target: T1, Histone deacetylase 1 (Homo sapiens, UniProt Q13547); test: Inhibition of HDAC1 after 30 mins by Fluor de Lys fluorescence assay
[2] = Selectivity ratio of IC50 for HDAC1 to IC50 for HDAC6
Histone deacetylase 3 [3] = biological target: T2, Histone deacetylase 3 (Homo sapiens, UniProt O15379); test: Inhibition of HDAC3 after 30 mins by Fluor de Lys fluorescence assay
T2 sequence (O15379 whole entry): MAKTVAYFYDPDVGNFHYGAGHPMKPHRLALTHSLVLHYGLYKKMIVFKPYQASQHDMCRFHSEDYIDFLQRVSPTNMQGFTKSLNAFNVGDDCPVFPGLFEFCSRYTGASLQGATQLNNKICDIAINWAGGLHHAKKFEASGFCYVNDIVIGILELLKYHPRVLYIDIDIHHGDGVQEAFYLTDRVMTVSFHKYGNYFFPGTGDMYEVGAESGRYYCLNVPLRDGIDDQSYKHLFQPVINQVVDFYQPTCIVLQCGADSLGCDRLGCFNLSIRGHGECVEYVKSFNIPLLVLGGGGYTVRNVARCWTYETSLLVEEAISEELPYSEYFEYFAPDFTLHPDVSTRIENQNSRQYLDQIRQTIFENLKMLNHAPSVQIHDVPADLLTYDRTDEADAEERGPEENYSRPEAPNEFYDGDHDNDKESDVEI

[4] = Selectivity ratio of IC50 for HDAC3 to IC50 for HDAC6
[5] = biological target: T3, Protein deacetylase HDAC6 (Homo sapiens, UniProt Q9UBN7); test: Inhibition of HDAC6 after 30 mins by Fluor de Lys fluorescence assay
T3 sequence (Q9UBN7 whole entry): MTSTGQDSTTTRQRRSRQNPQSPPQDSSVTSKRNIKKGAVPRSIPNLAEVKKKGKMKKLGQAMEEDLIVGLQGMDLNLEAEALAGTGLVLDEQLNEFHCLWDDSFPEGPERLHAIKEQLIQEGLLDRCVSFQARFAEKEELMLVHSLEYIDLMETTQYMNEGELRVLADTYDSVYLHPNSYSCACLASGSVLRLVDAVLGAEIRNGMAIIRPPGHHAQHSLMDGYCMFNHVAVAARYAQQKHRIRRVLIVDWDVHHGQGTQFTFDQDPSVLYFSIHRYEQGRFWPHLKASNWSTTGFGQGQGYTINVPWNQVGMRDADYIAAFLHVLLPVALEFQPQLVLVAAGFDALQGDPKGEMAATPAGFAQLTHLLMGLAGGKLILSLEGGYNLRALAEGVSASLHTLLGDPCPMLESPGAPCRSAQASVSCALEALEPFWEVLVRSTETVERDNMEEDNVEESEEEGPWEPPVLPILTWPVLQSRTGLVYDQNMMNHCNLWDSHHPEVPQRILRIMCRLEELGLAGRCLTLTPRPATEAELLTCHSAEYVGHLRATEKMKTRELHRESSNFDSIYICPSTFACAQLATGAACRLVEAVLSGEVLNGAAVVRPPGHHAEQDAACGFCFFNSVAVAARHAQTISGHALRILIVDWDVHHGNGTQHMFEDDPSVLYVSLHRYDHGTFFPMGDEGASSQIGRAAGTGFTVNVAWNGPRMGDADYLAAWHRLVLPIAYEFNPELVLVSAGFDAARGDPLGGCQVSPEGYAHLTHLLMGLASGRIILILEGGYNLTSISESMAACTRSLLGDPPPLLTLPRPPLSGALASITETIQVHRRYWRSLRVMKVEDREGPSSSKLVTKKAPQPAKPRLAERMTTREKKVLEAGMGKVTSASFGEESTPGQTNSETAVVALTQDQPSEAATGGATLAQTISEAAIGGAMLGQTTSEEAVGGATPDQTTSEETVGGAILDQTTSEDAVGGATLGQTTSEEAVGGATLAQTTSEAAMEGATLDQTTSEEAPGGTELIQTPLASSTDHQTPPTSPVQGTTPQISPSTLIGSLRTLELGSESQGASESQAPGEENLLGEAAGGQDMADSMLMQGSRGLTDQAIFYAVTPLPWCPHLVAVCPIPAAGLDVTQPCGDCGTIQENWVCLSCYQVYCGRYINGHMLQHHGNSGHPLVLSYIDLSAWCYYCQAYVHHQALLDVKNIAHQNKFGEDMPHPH

[6] = biological target: T4, Protein deacetylase HDAC6 (Homo sapiens) (UniProt Q9UBN7); test: Inhibition of HDAC6 assessed as residual activity at 32 uM after 30 mins by Fluor de Lys fluorescence assay
T4 sequence (whole entry): T3 sequence (Q9UBN7 whole entry)

Histone deacetylase 1 [7] = biological target: T1, Histone deacetylase 1; test: Inhibition of HDAC1 assessed as residual activity at 32 uM after 30 mins by Fluor de Lys fluorescence assay
[8] = Selectivity ratio of IC50 for HDAC3 to IC50 for HDAC1
Histone deacetylase 3 [9] = biological target: T2, Histone deacetylase 3; test: Inhibition of HDAC3 assessed as residual activity at 32 uM after 30 mins by Fluor de Lys fluorescence assay
Histone deacetylase 3 [10] = biological target: T2, Histone deacetylase 3; conditions: 375 nM
[11] = biological target: T4, Protein deacetylase HDAC6 (Homo sapiens); conditions: 375 nM
Histone deacetylase 1 [12] = biological target: T1, Histone deacetylase 1; conditions: 375 nM

T1 sequence (Q13547 whole entry): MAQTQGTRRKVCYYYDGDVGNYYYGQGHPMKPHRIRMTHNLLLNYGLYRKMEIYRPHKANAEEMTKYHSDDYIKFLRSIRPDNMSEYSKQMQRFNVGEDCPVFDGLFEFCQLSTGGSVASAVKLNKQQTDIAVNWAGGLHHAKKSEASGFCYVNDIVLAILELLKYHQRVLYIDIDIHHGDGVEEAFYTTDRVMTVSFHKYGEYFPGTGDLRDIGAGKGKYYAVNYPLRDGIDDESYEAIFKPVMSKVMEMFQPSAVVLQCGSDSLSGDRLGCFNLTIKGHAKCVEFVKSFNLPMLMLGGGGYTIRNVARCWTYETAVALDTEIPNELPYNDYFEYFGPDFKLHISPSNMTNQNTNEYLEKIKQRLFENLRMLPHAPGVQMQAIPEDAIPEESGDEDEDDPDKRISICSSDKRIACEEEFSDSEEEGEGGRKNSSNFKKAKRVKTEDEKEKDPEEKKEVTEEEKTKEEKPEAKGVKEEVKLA

Row | SMILES | IC50 (Histone deacetylase) [µM] | Ratio IC50 [2] | Activity [6] [%] | Activity (Histone deacetylase 1 [7]) [%] | Activity (Histone deacetylase 3 [9]) [%] | other results
1 | CCC(CCCCC(=O)Nc1ccccc1)CC(=O)NO (configuration not stated) | 32 | 3 | 18 | 39 | 83 | IC50 (Histone deacetylase 1 [1]): 22 µM; IC50 (Histone deacetylase 3 [3]): 97 µM; Ratio IC50 [4]: 12; IC50 [5]: 8 µM; Ratio IC50 [8]: 4
2 | CCCCC(CCCCC(=O)Nc1ccccc1)CC(=O)NO (configuration not stated) | 184 | – | 24 | 33 | 51 | –
3 | O=C(CC(CCCCC(=O)Nc1ccccc1)c1ccccc1)NO (configuration not stated) | 73 | – | 25 | 45 | 50 | –
4 | C=CC(CCCCC(=O)Nc1ccccc1)CC(=O)NO (configuration not stated) | 15 | – | 27 | 24 | 47 | –
5 | CC(CCCCC(=O)Nc1ccccc1)CC(=O)NO (configuration not stated) | 0.35 | – | – | – | – | Activity (Histone deacetylase 3 [10]): 59%; Activity [11]: 74%; Activity (Histone deacetylase 1 [12]): 46%
6 | O=C(CCCCCCC(=O)Nc1ccc([C@H]2O[C@@H](CSc3nc(-c4ccccc4)c(-c4ccccc4)o3)C[C@@H](c3ccc(CO)cc3)O2)cc1)NO | – | 7 | – | – | – | –
